From US12714678B2, “Peptides and methods of treating sepsis, atherosclerosis, thrombosis, stroke, heart attack and inflammation” (THE BOARD OF TRUSTEES OF THE UNIVERSITY OF ILLINOIS, priority 2019, dated 2026)
Where a SMILES comes first, the peptide text is derived from it. Where no end group is shown, it is not given here. The star is where a group is joined. Myristoyl = CCCCCCCCCCCCCC(=O)*

Key:
[1] = test system: C57/BL6 mice; test: Reverse passive Arthus (rpA) reaction; format: in vivo, mouse; conditions: 5 μmol/kg, vs scrambled peptide
Description: C57/BL6 mice were anesthetized by i.p. injection of a mixture of ketamine and xylazine (100 mg/kg and 16 mg/kg mouse weight), and the medial surface of the mouse back was shaved. Shaved mice received intradermal injections of rabbit anti-bovine serum albumin (BSA) antibody (6 μg/μL, MP Biomedicals, OH) in 25 μL of 0.9% NaCl, followed by i.v. injection of BSA (75 μg/g mouse weight) as well as the peptide inhibitors (5 μmol/kg mouse weight) in 100 μL sterile 0.9% NaCl. In addition, control sites received 25 μL of PBS in parallel. Four hours after injection, mice were euthanized and inflamed or control skin samples at each injection site were collected. The hemoglobin (Hb) contents in the skin samples were quantified by hemoglobin colorimetric assay kit (Cayman Chemical, Ann Arbor, MI).

[2] = test system: C57BL/6 mice; test: Tail bleeding time; conditions: cangrelor 30 μg/kg; for tail bleeding time vs normal control: M3mP6 HLPN 10 μmol/kg, aspirin 4.3 mg/kg, clopidogrel 4 mg/kg, ticagrelor 3 mg/kg, MB2mP6; for tail bleeding, drugs injected after initiation of thrombosis: M3mP6 10 μmol/kg
Description: M3mP6 was administered via retro-orbital injection 15 minutes prior to procedure.
Tail bleeding time was performed as previously described (21, 39). Eight- to 10-week-old C57BL/6 mice were anesthetized with isoflurane. After cutting 0.5-cm-long segment of the distal tip of the tail, their tails were immersed in 0.15 M NaCl immediately at 37° C. Tail bleeding time was defined as the time between cutting tail and stable cessation of bleeding (no rebleeding within 60s). […] If bleeding persisted at 15 minute time point, bleeding was stopped by application of pressure. Data were analyzed using Mann-Whitney test to compare medians between groups.
Tail bleeding time was performed as previously described (16, 29). Eight- to 10-week-old C57BL/6 mice weighing 20-25 g were anesthetized with isoflurane. After cutting a 0.5-cm-long segment off the distal tip of the tail, their tails were immersed in 0.15 M NaCl immediately at 37° C. Tail bleeding time was defined as the time between cutting the tail and stable cessation of bleeding (no re-bleeding within 60s). […] If bleeding persisted at 15 minutes, bleeding was stopped by application of pressure. Data were analyzed using the Mann-Whitney test to compare medians between groups.

[3] = Pharmacokinetics in rats (5-day infusion); design: species or system rat; conditions: Sprague-Dawley, in vivo
Description: (§1) Toxicological responses to bolus and continuous intravenous infusion of M3mP6 HLPN were performed using jugular vein catheterized (JVC) Sprague-Dawley (SD) rats (6-8 weeks old and […]), which were quarantined for at least 3 day after arrival. Four SD rats (n=2 per sex) was given an IV bolus dose of M3mP6 (100 mg/kg, dose volume 10 mL/kg) followed by IV infusion dose of M3mP6 for 24 hr (25 mg/kg/hr for a total dose of 600 mg/kg/day). […] A pilot 7-day continuous infusion study in rats was performed similarly with lower drug concentrations. The parameters observed include mortality, clinical signs, body weights, hematology, clinical chemistry and organ weights. For pharmacokinetic studies, plasma samples for drug analysis were obtained from blood samples collected in satellite 6 males and 6 females (3 rat/sex per time-point) in the dose Groups 3 and 4 (Phase 2) at the following time-point on Day 1 after the bolus dose and infusion were started: 5, 10 and 30 minutes, and 1, 2, 6 and 24 hours. Additional blood samples were collected prior to the end of 5-day infusion, immediately after stopping the infusion, and at 30 minutes, and 1, 4, 6, 24 and 48 hours after the end of the infusion.

[4] = Pharmacokinetics in mice; format: in vivo, mouse; conditions: intravenous injection of 5 mg/kg (5 μmol/kg)
Description: For pharmacokinetic studies, CD-1 mice were intravenously injected with 5 mg/kg (5 μmol/kg) M3mP6 (potential therapeutic dose). At the following time points: 0 (pre-dose) min, 5 min, 10 min, 30 min, 1, 2, 4, 6, and 24 hours, 3 drug-treated mice were sacrificed, and their blood drawn via vena cava into K2EDTA tubes. Whole blood and plasma were analyzed for M3mP6 concentrations using Agilent 1290 Infinity LC and 6430 triple quadrupole mass spectrometer and MassHunter software.

[5] = test system: Sprague-Dawley (SD) rats; test: Toxicity of bolus and continuous intravenous infusion in rats; format: in vivo; conditions: IV bolus 100 mg/kg followed by IV infusion 25 mg/kg/hr for 24 hr
Description: as §1

[6] = Acute maximal tolerated dose (MTD) in mice; conditions: mouse, in vivo, 60 mg/kg; CD-1 mice, IV tail vein, single injection, observed 8 days; read-out: maximal tolerated dose (MTD) = maximal feasible dose
Description: Four more animals were then injected with the same dose. The animals were observed 2 times per day for 8 days for clinical signs of toxicity.

[7] = test system: C57BL/6 mice; test: Cecal ligation and puncture (CLP) sepsis model; format: in vivo, mouse; conditions: bolus 2.5 μmol/kg then 1.25 μmol/kg/hour i.v.
Description: CLP sepsis was induced as described previously (32, 33). In brief, mice (14- to 16-week-old with equal number of each gender) were anesthetized by intraperitoneal administration of ketamine (100 mg/kg body weight) and xylazine (8 mg/kg). After a midline laparotomy, the cecum was ligated at about 1 cm from the end and then subjected to a double “through and through” perforation with an 18-gauge needle. Sham-operated mice underwent the same procedure except for ligation and puncture of the cecum. After the procedure, an analgesic (buprenorphine, 0.1 mg/kg, s.c.) was given immediately and every 12 h thereafter for 3 d. At these time points, fluid resuscitation (prewarmed 0.9% NaCl, 0.05 ml/g body weight) was given through subcutaneous injection to prevent fluid loss and help the recovery of body temperature. […] The survival of mice was observed every 6 h for 8 days and analyzed by the Log Rank test (using Prism GraphPad software (ver. 5.0), San Diego, CA, USA). […]
Twenty-four hours after CLP, mouse blood was collected and added to an EDTA-rinsed microcentrifuge tube or citrate buffer. […] The kidney function markers BUN, creatinine and cystatin C and mouse liver function marker ALT were detected using corresponding kits according to the manufacturers' instructions. […]

[8] = test system: C57BL/6 mice; test: Laser-induced mouse cremaster arteriolar thrombosis and intravital microscopy; format: in vivo; conditions: M3mP6 HLPN 10 μmol/kg, cangrelor 30 μg/kg
Description: Laser-induced thrombosis and intravital microscopy are performed as previously described using male C57BL/6 mice (6-8 weeks old) anesthetized by intraperitoneal injection of ketamine and xylazine (36). Platelet thrombi were indicated by infusion of DyLight 649-labeled anti-mouse […], Germany). Fibrin deposition was tracked by Alexa Fluor (AF) 488-labeled monoclonal anti-fibrin antibody (clone 59D8) as previously described (25). Suspensions of M3mP6 HLPN (10 μmol/kg) or a control peptide (Myr-ERAFEE (SEQ ID NO: 47)) HLPN in 0.15 M NaCl or cangrelor were injected 15 min or immediately prior to induction of injury. Fluorescence and bright-field images were recorded by an Olympus BX61W microscope with a 603/1.0 NA water immersion objective and a high-speed camera (5 frame/second) through an intensifier at 27-30 injury sites in 7 mice per group. The movies shown are compressed to 100 frame/second.

[9] = test system: C57BL/6 mice; test: Arterial perforation bleeding analysis (carotid artery perforation model of surgical bleeding); format: in vivo, mouse; conditions: M3mP6 HLPN 10 μmol/kg; cangrelor loading dose 30 μg/kg
Description: The right carotid artery was isolated as previously described (34, 37) and punctured with a 27½G needle in the middle of carotid artery. The perforating wound was immediately covered with a 4×4 mm hemostatic pad (CERTI-GAUZE™, Kansas City, MO), which serve to absorb extravascular blood and also help stop bleeding similarly to that during vascular procedures. The pad was removed after 15 minutes regardless whether bleeding continued or not. The volume of blood absorbed on the pad during the 15-minute period was quantified by estimating the amount of hemoglobin. To do so, adsorbed blood on the pad was dissolved into 30 mL double distilled water. To 1 mL of dissolved blood, 1 mL of the 2× Drabkin's Solution was added. After fully mixing and incubating for 20 minutes at room temperature, the absorbance of the samples was analyzed at 540 nm wave length with a spectrophotometer. Known volumes of blood were similarly analyzed to establish a standard curve for the calculation of blood volume on the pad. Data were analyzed by Mann-Whitney test for statistical significance.

[10] = test system: C57BL/6 mice; test: FeCl3-induced mouse carotid artery thrombosis model; format: in vivo
Description: The right carotid artery was isolated (34, 37). A MA-0.5SB nanoprobe (Transonic Systems, Ithaca, NY) was hooked to the carotid artery to monitor blood flow with a TS420 flowmeter (Transonic Systems) as previously described (38). After stabilization, carotid arterial thrombosis was induced with 7.5% ferric chloride (FeCl3) (Sigma Aldrich, St. Louis, MO), a filter paper disc (2 mm diameter) soaked with 1.2 μL of 7.5% FeCl3 was placed on top of the artery for 3 minutes, and then removed. M3mP6 HLPN, HLPN of scrambled control peptide, HLPN of a second control peptide carrying AAA mutation or physiological saline solution were injected 15 minutes before procedure retro-orbitally. […] To study the effect of post-injury drug injection on thrombosis development, the filter paper disc soaked with 1.2 μl 3.75% FeCl3 were placed on artery for 2 minutes, and drugs were injected retro-orbitally 3 minutes after removing the filter paper. Blood flow was monitored continuously until 5 minutes after occlusion or for 30 minutes if no occlusion occurred. Time to occlusion was defined as the time between the removal of the filter paper and stable occlusion (no blood flow for 2 minutes).
Eight- to 10-week-old C57BL/6 mice (20-25 g body weight) were anesthetized by isoflurane inhalation. The right carotid artery was isolated. A MA-0.5SB nanoprobe (Transonic Systems, Ithaca, NY) was hooked to the carotid artery to monitor blood flow with a TS420 flowmeter (Transonic Systems) as previously described (29). After stabilization, a filter paper disc (2 mm diameter) soaked with 1.2 μL of 7.5% FeCl3 (Sigma Aldrich, St. Louis, MO) was placed on top of the carotid artery for 3 minutes to induce thrombosis and then removed. MB2mP6 or scrambled control peptide were injected 15 minutes before the procedure retro-orbitally. Blood flow was monitored continuously until 5 minutes after occlusion or for 15 minutes if no occlusion occurred. Time to occlusion was defined as the time between the removal of the filter paper and stable occlusion (no blood flow for 5 minutes).

In the case of CCCCCCCCCCCCCC(=O)N[C@@H](Cc1ccccc1)C(=O)N[C@@H](CCC(=O)O)C(=O)N[C@@H](CCCCN)C(=O)N[C@@H](CCC(=O)O)C(=O)N[C@@H](CCCCN)C(=O)N[C@@H](CC(C)C)C(=O)O [MB2mP6, Myr-FEKEKL] (Myristoyl-FEKEKL-OH; C-terminus assumed), the inflammation-induced hemorrhage [1] is reported as “neither affected” and the “tail bleeding time vs normal control” value [2] is reported as “neither affected”.

Molecule CCCCCCCCCCCCCC(=O)N[C@@H](Cc1ccccc1)C(=O)N[C@@H](CCC(=O)O)C(=O)N[C@@H](CCC(=O)O)C(=O)N[C@@H](CCC(=O)O)C(=O)N[C@@H](CCCNC(=N)N)C(=O)N[C@@H](CC(C)C)C(=O)O [M3mP6, Myr-FEEERL] (Myristoyl-FEEERL-OH; C-terminus assumed) has a half-life ([3]; female, rat, iv) of 3.7 h, a half-life ([3]; male, rat 5-day infusion study, read-out: t1/2−λz (half-life after cessation of infusion), male (converted)) of 3.1 h and a half-life ([4]; CD-1, mouse, in vivo, read-out: t1/2−λz (converted)) of 2.46 h. The “maximum level in whole blood” value [4] was 33.36 ng/mL, the “toxicity during 3-4 days post dose (single dose MTD)” value [5] was “no toxicity was observed” and the MTD at 8 days [6] was 60 mg/kg. For the same molecule, the “tail bleeding, drugs injected after initiation of thrombosis” value [2] was “but not M3mP6 caused significant bleeding”.

For “Myr-EFKKLE (Myristoyl-EFKKLE) [control peptide, scrambled control for MB2mP6 in micellar nanoparticle formulation (CLP study)]”, the “survival rate at 192 h (8 days), infusion immediately after CLP” value [7] was 26%.

For CSCCNc1nc(SCCC(F)(F)F)nc2c1ncn2[C@@H]1O[C@H](COP(=O)(O)OP(=O)(O)C(Cl)(Cl)P(=O)(O)O)[C@@H](O)[C@H]1O [cangrelor], the “intravascular fibrin clot formation at the site of vascular injury” value [8] was “moderate effect”, the platelet thrombus formation ([8]; preinjected) was “completely inhibiting” and the “bleeding from perforated artery vs control mice” value [9] was “caused excessive bleeding”. For the same molecule, the “tail bleeding, drugs injected after initiation of thrombosis” value [2] was “caused significant bleeding”, the “tail bleeding time vs normal control” value [2] was “dramatically increased” and the “anti-thrombotic effect compared with M3mP6 (10 μmol/kg), drugs injected after initiation of thrombosis” value ([10]; 3.75% FeCl3, cangrelor 30 μg/kg) was “no statistical difference”. For the same molecule, the “anti-thrombotic effect compared with M3mP6 HLPN (10 μmol/kg), pre-injury dosing” value ([10]; clopidogrel 4 mg/kg, ticagrelor 3 mg/kg, aspirin 4.3 mg/kg oral, cangrelor 30 μg/kg retro-orbital, MB2mP6) was “moderately but significantly better”.
